Measurements as given in US20200397763A1, “PARENTERAL FORMULATION MATERIALS AND METHODS FOR 40-O-CYCLIC HYDROCARBON ESTERS AND RELATED STRUCTURES” (Biotronik AG, priority 2018, published 2020).

Legend:
[1] = Rat intravenous PK of the EtOH / SEQ ID NO:1 formulation without nanoparticles; assay type: in vivo, Sprague-Dawley rats; details: for AUC(0-inf): Sprague-Dawley, rat, rats, intravenous 15 mg/kg, EtOH / 20% SEQ ID NO:1 in saline, without nanoparticles, LCMS
Method: It is understood the concentration may be optimized according to desired dosing schemes, routes of administration, etc.
The PK studies were conducted around the formulation from Example I. Specifically, Sprague-Dawley rats were dosed intravenously at 15 mg/kg, with blood samples being collected prior to dosing, in order to establish baseline, then post dosing at set intervals up to 24 hours. Drug bioanalytical measurements were conducted by LCMS.
Results (AUCinf) reported in the prior art are from blood plasma, whereas the present results are from both plasma and whole blood. This was done to allow for direct comparison to the previous studies. Drug area under the curve versus time ((AUCinf), total drug dose exposure) was calculated accordingly.
Sirolimus (rapamycin) was used and formulated in accordance with those steps described previously at Example I. Specifically, sirolimus was combined with SEQ ID NO:1 but without nanoparticles and tested against the studies shown in the prior art, namely, sirolimus formulated with SEQ ID NO:1 but with nanoparticles.

[2] = prior art; blood plasma; 15 mg/kg; SEQ ID NO:1 with nanoparticles; cited from earlier work

For `CO[C@H]1C[C@@H]2CC[C@@H](C)[C@@](O)(O2)C(=O)C(=O)N2CCCC[C@H]2C(=O)O[C@H]([C@H](C)C[C@@H]2CC[C@@H](O)[C@H](OC)C2)CC(=O)[C@H](C)/C=C(\C)[C@@H](O)[C@@H](OC)C(=O)[C@H](C)C[C@H](C)/C=C/C=C/C=C/1C` [Sirolimus, rapamycin], which AUC(0-inf) ([1]; plasma) is on record?
Its AUC(0-inf) is 5180 ± 130 ng·h/mL.

And the AUC(0-inf) ([1]; whole blood)?
Its AUC(0-inf) is 5060 ± 541 ng·h/mL.

And the “difference between the AUCinf results of the current studies and the prior art” value ([1]; sirolimus without nanoparticles (current) versus with nanoparticles (prior art))?
Its value is 20%.

And the AUCinf [2]?
Its AUCinf is 6017 ± 647 ng·h/mL.
